This note sets out measurements from patent US11254702B2, “Thionyl tetrafluoride modified compounds and uses” (The Scripps Research Institute, priority 2016, dated 2022).

The term melting point denotes the temperature, or range, at which the solid turns liquid.

System in one series: not given
Test: not given
Details: not given
Take `C#CCOC[C@H]1O[C@@H](n2cc(C)c(=O)[nH]c2=O)C[C@@H]1N=S(=O)(F)N1CCC1` (some centres unmarked): the melting point was in the range of 105 to 106 °C.

With `C#Cc1ccc(N=S(=O)(F)N2CCC(=O)CC2)cc1` (centres unmarked), the melting point was found to be 70 °C.

Regarding `C#CCOC[C@H]1O[C@@H](n2cc(C)c(=O)[nH]c2=O)C[C@@H]1N=S(=O)(F)Oc1ccc2c(c1)CC[C@H]1C3CCC(=O)[C@@]3(C)CC[C@H]21` (some centres unmarked), the melting point lay in the range of 94 to 95 °C.

For the compound `O=C1[C@@H]([C@H](c2ccccc2)N2CCN(c3ccc(F)cc3)CC2)N=S(=O)(F)N1C1CCCCC1` (stereo partly drawn) [Compound 2-25, (4R)-2-Cyclohexyl-1-fluoro-4-((S)-(4-(4-fluorophenyl)piperazin-1-yl)(phenyl)methyl)-2,4-dihydro-3H-1λ^6,2,5-thiadiazol-3-one 1-oxide], the melting point fell in the range of 139 to 140 °C.

`C#Cc1ccc(NS(=O)(=O)NCC(=O)O)cc1` [Compound 4-1, (N-(4-ethynylphenyl)sulfamoyl)glycine] showed a melting point of 113 to 115 °C.

Consider `C#Cc1ccc(NS(=O)(=O)N[C@@H](C)C(=O)O)cc1` [Compound 4-2, (N-(4-Ethynylphenyl)sulfamoyl)-L-alanine], for which the melting point was in the range of 163 to 165 °C.

Compound `C#Cc1ccc(N=S(=O)(F)Oc2ccc(-c3ccccc3)cc2)cc1` (centres unmarked) [Compound 6-1, [1,1′-biphenyl]-4-yl (4-ethynylphenyl)sulfurofluoridoimidate] yielded a melting point of 94 to 95 °C.

Consider `C#Cc1ccc(N=S(=O)(Oc2ccc(-c3ccccc3)cc2)Oc2ccc(-c3ccccc3)cc2)cc1` [Compound 7-2, Di([1,1′-biphenyl]-4-yl) (4-ethynylphenyl)sulfurimidate], for which the melting point is 129 °C.

On to `C#Cc1ccc(N=S2(=O)Oc3ccccc3O2)cc1` [Compound 9-1, 2-((4-Ethynylphenyl)imino)-2λ^4-benzo[d][1,3,2]dioxathiole 2-oxide], for which the melting point fell in the range of 97 to 98 °C.

Take `C#Cc1ccc(N=S2(=O)Oc3c(C)ccc(C)c3O2)cc1` [Compound 9-2, 2-((4-Ethynylphenyl)imino)-4,7-dimethyl-2λ^4-benzo[d][1,3,2]dioxathiole 2-oxide]: the melting point was determined as 101 °C.

For the compound `C#Cc1ccc(N=S2(=O)Oc3ccccc3-c3ccccc3O2)cc1` [Compound 9-4, 6-((4-Ethynylphenyl)imino)-6λ^4-dibenzo[d,f][1,3,2]dioxathiepine 6-oxide], the melting point lay within 138 to 139 °C.

`C#Cc1ccc(N=S(=O)(Oc2ccccc2O)N2CCCCC2)cc1` (centres unmarked) [Compound 10-1, 2-Hydroxyphenyl N-(4-ethynylphenyl)piperidine-1-sulfonimidate] returned a melting point of 93 °C.

With `C#Cc1ccc(N=S(=O)(Oc2ccccc2O)N2CCN(C(=O)OC(C)(C)C)CC2)cc1` (stereo not drawn) [Compound 10-2, tert-Butyl 4-(N-(4-ethynylphenyl)-S-(2-hydroxyphenoxy)sulfonimidoyl)piperazine-1-carboxylate], the melting point lay within 139 to 141 °C.

The next series relates to zebrafish embryos. The experiment in a line: Zebrafish embryo phenotype after incubation with compound. The format is in vivo. The following applies: zebrafish embryos treated at concentrations of 10 and 20 μM; micrographic images (FIG. 14 A, B). As to the method: FIG. 14 provides micrographic images of zebrafish embryos: (A) and (B) Phenotypes generated by incubating zebrafish embryos with Compound 2-23 at various concentration; (C) Lysates from Compound 2-23 treated or untreated embryos at 24 hpf were reacted with biotin-azide, pull-down with streptavidin beads and analyzed using SDS-PAGE.
FIG. 14 provides micrographic images of zebrafish embryos. Panels (A) and (B) illustrate phenotypes generated by incubating zebrafish embryos with Compound 2-23 at various concentrations. […] Panel (C) provides SDS-PAGE images of lysates from Compound 2-23 treated or untreated embryos at 24 hours post fertilization (hpf). The lysates were treated with biotin-azide and a copper(I) catalyst to react with the terminal alkyne via a copper-catalyzed azide-alkyne Click reaction and thereby attach biotin to any Compound 2-23 that may have been bound to a protein in the lysate. The biotinated lysate was then pulled-down with streptavidin beads and analyzed using SDS-PAGE.
As for `C#CCOC[C@H]1O[C@@H](n2cc(C)c(=O)[nH]c2=O)C[C@H]1N=S(=O)(F)F` [Compound 2-23, ((2S,3S,5R)-5-(5-Methyl-2,4-dioxo-3,4-dihydropyrimidin-1(2H)-yl)-2-((prop-2-yn-1-yloxy)methyl)tetrahydrofuran-3-yl)sulfurimidoyl Difluoride], the “phenotypical changes in the embryos” value was “significant phenotypical changes”.
